Measurements: patent publication US20250257086A1, “EGFR DEGRADATION AGENT” (Beijing Tide Pharmaceutical Co., Ltd., priority 2022, published 2025)

The compounds below were run against Ba/F3 (EGFR^L858R/T790M/C797S) cells (Homo sapiens, UniProt P00533, T790M/C797S/L858R, cells depend on it) (assay: Antiproliferative activity on Ba/F3 (EGFR L858R/T790M/C797S) cells (CTG)). Conditions: 72h incubation, CTG luminescence, read-out: IC50 (nM), antiproliferative activity.
Type: cell-based
Protocol: 30 nL of the compound dilution was added to a 384-well plate by Echo (Labcyte, Echo550).
The percent inhibition rate (% inhibition) was calculated by the following formula
[formula] • LUMcmpd: Luminescence value of assay compound. • LUMpositive: Average LUM value of positive drug with a concentration of 10 μM. • LUMvehicle: Average LUM value of negative control group without drug treatment.
The nonlinear regression curve (dose response-variable slope) between the value of inhibition rate (%) and the logarithm of compound concentration was fitted with graphpad prism 8.0, the effect dose curve of compound was drawn, and the IC50 value was calculated.
Y=Bottom+(Top−Bottom)/(1+10^((Log IC50−X)*HillSlope)) • X-axis: logarithm of compound concentration; Y axis: inhibition rate (% inhibition).

Sequence of Ba/F3 (EGFR^L858R/T790M/C797S) cells (P00533 whole entry T790M/C797S/L858R): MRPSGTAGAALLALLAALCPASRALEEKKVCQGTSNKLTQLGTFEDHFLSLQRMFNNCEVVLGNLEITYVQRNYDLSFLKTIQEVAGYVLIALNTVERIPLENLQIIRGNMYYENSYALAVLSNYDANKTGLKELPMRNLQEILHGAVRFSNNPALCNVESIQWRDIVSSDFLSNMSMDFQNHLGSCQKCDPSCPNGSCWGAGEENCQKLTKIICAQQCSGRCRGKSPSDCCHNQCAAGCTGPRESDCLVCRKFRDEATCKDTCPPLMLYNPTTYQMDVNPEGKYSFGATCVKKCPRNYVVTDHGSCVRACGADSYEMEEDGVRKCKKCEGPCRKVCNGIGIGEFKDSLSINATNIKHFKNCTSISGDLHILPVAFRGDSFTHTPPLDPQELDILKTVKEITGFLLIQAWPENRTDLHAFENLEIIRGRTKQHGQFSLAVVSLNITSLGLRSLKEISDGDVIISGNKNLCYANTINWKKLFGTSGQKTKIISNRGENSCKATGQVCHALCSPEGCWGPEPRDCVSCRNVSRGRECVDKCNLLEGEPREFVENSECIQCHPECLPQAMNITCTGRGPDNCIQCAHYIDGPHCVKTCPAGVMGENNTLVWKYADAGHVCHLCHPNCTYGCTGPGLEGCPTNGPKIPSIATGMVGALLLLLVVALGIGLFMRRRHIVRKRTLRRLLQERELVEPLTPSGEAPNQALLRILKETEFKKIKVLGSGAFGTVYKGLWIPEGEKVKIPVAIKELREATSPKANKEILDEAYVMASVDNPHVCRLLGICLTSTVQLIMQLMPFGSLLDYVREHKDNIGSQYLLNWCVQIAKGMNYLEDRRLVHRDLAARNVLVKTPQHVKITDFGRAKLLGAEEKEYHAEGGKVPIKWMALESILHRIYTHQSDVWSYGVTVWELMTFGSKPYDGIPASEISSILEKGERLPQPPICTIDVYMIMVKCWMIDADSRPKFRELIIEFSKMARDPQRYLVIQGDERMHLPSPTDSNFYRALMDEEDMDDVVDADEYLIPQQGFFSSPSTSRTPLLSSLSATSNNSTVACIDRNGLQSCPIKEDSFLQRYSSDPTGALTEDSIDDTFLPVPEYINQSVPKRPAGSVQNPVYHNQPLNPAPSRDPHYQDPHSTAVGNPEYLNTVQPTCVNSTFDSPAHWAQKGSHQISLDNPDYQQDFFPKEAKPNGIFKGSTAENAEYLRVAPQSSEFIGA

| SMILES | GI50 [nM] |
| --- | --- |
| CCCC#CC(=O)Nc1cc(Nc2ncc(Cl)c(Nc3ccccc3P(C)(C)=O)n2)ccc1N1CCC(N2CCN(CCCC#Cc3cccc4c3CN(C3CCC(=O)NC3=O)C4=O)CC2)CC1 (stereo not shown) [Compound D668, N-(5-((5-chloro-4-((2-(dimethylphosphoryl)phenyl)amino)pyrimidin-2-yl)amino)-2-(4-(4-(5-(2-(2,6-dioxopiperidin-3-yl)-1-oxoisoindolin-4-yl)pent-4-yn-1-yl)piperazin-1-yl)piperidin-1-yl)phenyl)hex-2-ynamide] | 21.2 |
| C=CC(=O)Nc1cc(Nc2ncc(Cl)c(Nc3ccc4nccnc4c3P(C)(C)=O)n2)c(OC)cc1N1CCC(N2CCN(CCCC#Cc3cccc4c3CN(C3CCC(=O)NC3=O)C4=O)CC2)CC1 (stereo not shown) [Compound D670, N-(5-((5-chloro-4-((5-(dimethylphosphoryl)quinoxalin-6-yl)amino)pyrimidin-2-yl)amino)-2-(4-(4-(5-(2-(2,6-dioxopiperidin-3-yl)-1-oxoisoindolin-4-yl)pent-4-yn-1-yl)piperazin-1-yl)piperidin-1-yl)-4-methoxyphenyl)acrylamide] | 25.7 |
| C=C(F)C(=O)Nc1cc(Nc2ncc(Cl)c(Nc3ccc4nccnc4c3P(C)(C)=O)n2)c(OC)cc1N1CCC(N2CCN(CCCC#Cc3cccc4c3CN(C3CCC(=O)NC3=O)C4=O)CC2)CC1 (stereo not shown) [Compound D671, N-(5-((5-chloro-4-((5-(dimethylphosphoryl)quinoxalin-6-yl)amino)pyrimidin-2-yl)amino)-2-(4-(4-(5-(2-(2,6-dioxopiperidin-3-yl)-1-oxoisoindolin-4-yl)pent-4-yn-1-yl)piperazin-1-yl)piperidin-1-yl)-4-methoxyphenyl)-2-fluoroacrylamide] | 14.5 |
| CC#CC(=O)Nc1cc(Nc2ncc(Cl)c(Nc3ccc4nccnc4c3P(C)(C)=O)n2)c(OC)cc1N1CCC(N2CCN(CCCC#Cc3cccc4c3CN(C3CCC(=O)NC3=O)C4=O)CC2)CC1 (stereo not shown) [Compound D672, N-(5-((5-chloro-4-((5-(dimethylphosphoryl)quinoxalin-6-yl)amino)pyrimidin-2-yl)amino)-2-(4-(4-(5-(2-(2,6-dioxopiperidin-3-yl)-1-oxoisoindolin-4-yl)pent-4-yn-1-yl)piperazin-1-yl)piperidin-1-yl)-4-methoxyphenyl)but-2-ynamide] | 15.1 |
| COc1cc(N2CCC(N3CCN(CCCC#Cc4cccc5c4CN(C4CCC(=O)NC4=O)C5=O)CC3)CC2)c(NC(=O)/C=C/C(F)(F)F)cc1Nc1ncc(Cl)c(Nc2ccc3nccnc3c2P(C)(C)=O)n1 (stereo not shown) [Compound D673, (E)-N-(5-((5-chloro-4-((5-(dimethylphosphoryl)quinoxalin-6-yl)amino)pyrimidin-2-yl)amino)-2-(4-(4-(5-(2-(2,6-dioxopiperidin-3-yl)-1-oxoisoindolin-4-yl)pent-4-yn-1-yl)piperazin-1-yl)piperidin-1-yl)-4-methoxyphenyl)-4,4,4-trifluorobut-2-enamide] | 20.6 |
| C=C(F)C(=O)Nc1cc(Nc2ncc(Cl)c(Nc3ccc4c(c3P(C)(C)=O)OCCO4)n2)c(OC)cc1N1CCC(N2CCN(CCCC#Cc3cccc4c3CN(C3CCC(=O)NC3=O)C4=O)CC2)CC1 (stereo not shown) [Compound D682] | 14.6 |
| C=CC(=O)Nc1cc(Nc2ncc(Cl)c(Nc3ccc4c(c3P(C)(C)=O)OCCO4)n2)c(OC)cc1N1CCC(N2CCN(CCCC#Cc3cccc4c3CN(C3CCC(=O)NC3=O)C4=O)CC2)CC1 (stereo not shown) [Compound D683] | 22.3 |
| COc1cc(N2CCC(N3CCN(CCCC#Cc4cccc5c4CN(C4CCC(=O)NC4=O)C5=O)CC3)CC2)c(NC(=O)/C=C/C(F)(F)F)cc1Nc1ncc(Cl)c(Nc2ccc3c(c2P(C)(C)=O)OCCO3)n1 (stereo not shown) [Compound D684] | 24.1 |
| CC#CC(=O)Nc1cc(Nc2ncc(Cl)c(Nc3ccc4c(c3P(C)(C)=O)OCCO4)n2)c(OC)cc1N1CCC(N2CCN(CCCC#Cc3cccc4c3CN(C3CCC(=O)NC3=O)C4=O)CC2)CC1 (stereo not shown) [Compound D685] | 22.5 |
| CC#CC(=O)Nc1cc(Nc2ncc(Br)c(Nc3ccccc3P(C)(C)=O)n2)c(OCC(F)(F)F)cc1N1CCC(N2CCN(CCCC#Cc3cccc4c3CN(C3CCC(=O)NC3=O)C4=O)CC2)CC1 (stereo not shown) [Compound D845, N-(5-((5-bromo-4-((2-(dimethylphosphoryl)phenyl)amino)pyrimidin-2-yl)amino)-2-(4-(4-(5-(2-(2,6-dioxopiperidin-3-yl)-1-oxoisoindolin-4-yl)pent-4-yn-1-yl)piperazin-1-yl)piperidin-1-yl)-4-(2,2,2-trifluoroethoxy)phenyl)but-2-ynamide] | 16.9 |
| CP(C)(=O)c1ccccc1Nc1nc(Nc2cc(NC(=O)/C=C/C(F)(F)F)c(N3CCC(N4CCN(CCCC#Cc5cccc6c5CN(C5CCC(=O)NC5=O)C6=O)CC4)CC3)cc2OCC(F)(F)F)ncc1Br (stereo not shown) [Compound D847, (E)-N-(5-((5-bromo-4-((2-(dimethylphosphoryl)phenyl)amino)pyrimidin-2-yl)amino)-2-(4-(4-(5-(2-(2,6-dioxopiperidin-3-yl)-1-oxoisoindolin-4-yl)pent-4-yn-1-yl)piperazin-1-yl)piperidin-1-yl)-4-(2,2,2-trifluoroethoxy)phenyl)-4,4,4-trifluorobut-2-enamide] | 16.3 |
| CCCC#CC(=O)Nc1cc(Nc2ncc(Br)c(Nc3ccccc3P(C)(C)=O)n2)c(OCC(F)(F)F)cc1N1CCC(N2CCN(CCCC#Cc3cccc4c3CN(C3CCC(=O)NC3=O)C4=O)CC2)CC1 (stereo not shown) [Compound D856, N-(5-((5-bromo-4-((2-(dimethylphosphoryl)phenyl)amino)pyrimidin-2-yl)amino)-2-(4-(4-(5-(2-(2,6-dioxopiperidin-3-yl)-1-oxoisoindolin-4-yl)pent-4-yn-1-yl)piperazin-1-yl)piperidin-1-yl)-4-(2,2,2-trifluoroethoxy)phenyl)hex-2-ynamide] | 27.4 |

Compounds with a lower GI50, results first:

| GI50 [nM] | SMILES |
| --- | --- |
| 10.2 | COc1cc(N2CCC(N3CCN(CCCC#Cc4cccc5c4CN(C4CCC(=O)NC4=O)C5=O)CC3)CC2)c(C)cc1Nc1ncc(Br)c(Nc2ccc3nccnc3c2NS(C)(=O)=O)n1 (stereo not shown) [Compound D741, N-(6-((5-bromo-2-((4-(4-(4-(5-(2-(2,6-dioxopiperidin-3-yl)-1-oxoisoindolin-4-yl)pent-4-yn-1-yl)piperazin-1-yl)piperidin-1-yl)-2-methoxy-5-methylphenyl)amino)pyrimidin-4-yl)amino)quinoxalin-5-yl)methanesulfonamide] |
| 3.36 | C=C(F)C(=O)Nc1cc(Nc2ncc(C(F)(F)F)c(Nc3ccccc3P(C)(C)=O)n2)c(OC)cc1N1CCC(N2CCN(CCCC#Cc3cccc4c3CN(C3CCC(=O)NC3=O)C4=O)CC2)CC1 (stereo not shown) [Compound D746, N-(5-((4-((2-(dimethylphosphoryl)phenyl)amino)-5-(trifluoromethyl)pyrimidin-2-yl)amino)-2-(4-(4-(5-(2-(2,6-dioxopiperidin-3-yl)-1-oxoisoindolin-4-yl)pent-4-yn-1-yl)piperazin-1-yl)piperidin-1-yl)-4-methoxyphenyl)-2-fluoroacrylamide] |
| 8.77 | COc1cc(N2CCC(N3CCN(CCCC#Cc4cccc5c4CN(C4CCC(=O)NC4=O)C5=O)CC3)CC2)c(NC(=O)/C=C/C(F)(F)F)cc1Nc1ncc(C(F)(F)F)c(Nc2ccccc2P(C)(C)=O)n1 (stereo not shown) [Compound D747, (E)-N-(5-((4-((2-(dimethylphosphoryl)phenyl)amino)-5-(trifluoromethyl)pyrimidin-2-yl)amino)-2-(4-(4-(5-(2-(2,6-dioxopiperidin-3-yl)-1-oxoisoindolin-4-yl)pent-4-yn-1-yl)piperazin-1-yl)piperidin-1-yl)-4-methoxyphenyl)-4,4,4-trifluorobut-2-enamide] |
| 7.76 | CC#CC(=O)Nc1cc(Nc2ncc(C(F)(F)F)c(Nc3ccccc3P(C)(C)=O)n2)c(OC)cc1N1CCC(N2CCN(CCCC#Cc3cccc4c3CN(C3CCC(=O)NC3=O)C4=O)CC2)CC1 (stereo not shown) [Compound D748, N-(5-((4-((2-(dimethylphosphoryl)phenyl)amino)-5-(trifluoromethyl)pyrimidin-2-yl)amino)-2-(4-(4-(5-(2-(2,6-dioxopiperidin-3-yl)-1-oxoisoindolin-4-yl)pent-4-yn-1-yl)piperazin-1-yl)piperidin-1-yl)-4-methoxyphenyl)but-2-ynamide] |
| 11.9 | CCCC#CC(=O)Nc1cc(Nc2ncc(C(F)(F)F)c(Nc3ccccc3P(C)(C)=O)n2)c(OC)cc1N1CCC(N2CCN(CCCC#Cc3cccc4c3CN(C3CCC(=O)NC3=O)C4=O)CC2)CC1 (stereo not shown) [Compound D835, N-(5-((4-((2-(dimethylphosphoryl)phenyl)amino)-5-(trifluoromethyl)pyrimidin-2-yl)amino)-2-(4-(4-(5-(2-(2,6-dioxopiperidin-3-yl)-1-oxoisoindolin-4-yl)pent-4-yn-1-yl)piperazin-1-yl)piperidin-1-yl)-4-methoxyphenyl)hex-2-ynamide] |
| 11.9 | C=C(F)C(=O)Nc1cc(Nc2ncc(Br)c(Nc3ccccc3P(C)(C)=O)n2)c(OCC(F)(F)F)cc1N1CCC(N2CCN(CCCC#Cc3cccc4c3CN(C3CCC(=O)NC3=O)C4=O)CC2)CC1 (stereo not shown) [Compound D846, N-(5-((5-bromo-4-((2-(dimethylphosphoryl)phenyl)amino)pyrimidin-2-yl)amino)-2-(4-(4-(5-(2-(2,6-dioxopiperidin-3-yl)-1-oxoisoindolin-4-yl)pent-4-yn-1-yl)piperazin-1-yl)piperidin-1-yl)-4-(2,2,2-trifluoroethoxy)phenyl)-2-fluoroacrylamide] |
| 8.87 | C=C(F)C(=O)Nc1cc(Nc2ncc(C(F)(F)F)c(Nc3ccccc3P(C)(C)=O)n2)c(OCC(F)(F)F)cc1N1CCC(N2CCN(CCCC#Cc3cccc4c3CN(C3CCC(=O)NC3=O)C4=O)CC2)CC1 (stereo not shown) [Compound D870, N-(5-((4-((2-(dimethylphosphoryl)phenyl)amino)-5-(trifluoromethyl)pyrimidin-2-yl)amino)-2-(4-(4-(5-(2-(2,6-dioxopiperidin-3-yl)-1-oxoisoindolin-4-yl)pent-4-yn-1-yl)piperazin-1-yl)piperidin-1-yl)-4-(2,2,2-trifluoroethoxy)phenyl)-2-fluoroacrylamide] |
